Broadly, the Ki is a measure of affinity in units of concentration, obtained from inhibition or displacement. Higher therefore signals lower affinity.

Each structure is given as a SMILES string.

The results in this text go back to ChEMBL document CHEMBL1129747, “Head group analogs of arachidonylethanolamide, the endogenous cannabinoid ligand” (J Med Chem, 1996).

Experiment [1] addresses Cannabinoid receptor 2 (Mus musculus, UniProt P47936). Put plainly: Compound was evaluated for its binding affinity for mouse spleen Cannabinoid receptor 2.
Experiment [2] has as its target Cannabinoid receptor 1 (Rattus norvegicus, UniProt P20272). Briefly: Displacement of [3H]CP-55940 from Cannabinoid receptor 1 of rat forebrain membranes. In kind it is cell membranes, Membrane. On the technique in general: Loss of bound radioactivity is the signal in a displacement assay; it reports binding, not function.

Sequence of Cannabinoid receptor 1 (P20272 whole entry): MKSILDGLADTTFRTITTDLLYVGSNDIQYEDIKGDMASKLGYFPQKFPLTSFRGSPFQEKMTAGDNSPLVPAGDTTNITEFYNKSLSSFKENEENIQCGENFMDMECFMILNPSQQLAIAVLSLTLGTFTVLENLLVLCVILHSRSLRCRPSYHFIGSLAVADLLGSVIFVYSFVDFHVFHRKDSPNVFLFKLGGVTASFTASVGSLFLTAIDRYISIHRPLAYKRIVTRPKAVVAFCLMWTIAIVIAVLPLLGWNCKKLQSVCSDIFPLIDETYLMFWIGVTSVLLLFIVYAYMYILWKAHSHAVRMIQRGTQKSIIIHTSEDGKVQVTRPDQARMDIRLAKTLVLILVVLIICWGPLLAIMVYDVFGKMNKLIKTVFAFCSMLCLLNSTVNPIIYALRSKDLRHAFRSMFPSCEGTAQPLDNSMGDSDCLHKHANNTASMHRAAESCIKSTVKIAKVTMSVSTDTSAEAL
Sequence of Cannabinoid receptor 2 (P47936 whole entry): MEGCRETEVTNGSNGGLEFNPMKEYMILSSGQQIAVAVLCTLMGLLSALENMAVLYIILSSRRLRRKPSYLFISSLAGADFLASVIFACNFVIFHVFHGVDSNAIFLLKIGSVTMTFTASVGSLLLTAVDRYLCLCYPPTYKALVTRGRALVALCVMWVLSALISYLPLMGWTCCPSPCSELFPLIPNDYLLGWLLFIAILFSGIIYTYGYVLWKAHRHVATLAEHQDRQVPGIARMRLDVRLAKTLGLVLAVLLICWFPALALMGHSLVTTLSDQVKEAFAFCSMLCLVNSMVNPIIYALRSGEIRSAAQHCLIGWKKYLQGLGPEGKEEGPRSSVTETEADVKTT

With `CCCCC/C=C\C/C=C\C/C=C\C/C=C\CCCC(=O)Nc1ccccc1O`, the Ki is 2100 nM in experiment [1] and 1660 nM in experiment [2].
In turn, `CCCCC/C=C\C/C=C\C/C=C\C/C=C\CCCC(=O)N[C@H]1CCCC[C@@H]1O` gave a Ki in experiment [2] of over 3000 nM.
Same read-out and setting: the same measure for `CCCCC/C=C\C/C=C\C/C=C\C/C=C\CCCC(=O)NC(CO)CO`: 363 nM.
Regarding `CCCCC/C=C\C/C=C\C/C=C\C/C=C\CCCC(=O)Nc1cccc(O)c1`, the Ki is 3100 nM in experiment [1] and 1560 nM in experiment [2].
The corresponding values for `CCCCC/C=C\C/C=C\C/C=C\C/C=C\CCCC(=S)NCCO` are 6300 nM and 1380 nM.
In experiment [2], `CCCCC/C=C\C/C=C\C/C=C\C/C=C\CCCC(=O)NCC(O)CC` (stereo not given) came in with a Ki of 203 nM.
With `CCCCC/C=C\C/C=C\C/C=C\C/C=C\CCCC(=O)Nc1ccc(O)cc1`, the Ki was 13000 nM in experiment [1] and 1760 nM in experiment [2].
The like results for `CCCCC/C=C\C/C=C\C/C=C\C/C=C\CCCC(=O)NCc1ccc(O)cc1` were, in that order, 11000 nM and 217 nM.
Take `CCCCC/C=C\C/C=C\C/C=C\C/C=C\CCCC(=O)NCCO` [ANANDAMIDE]: the Ki in experiment [1] was found to be 1930 nM.
In experiment [1], `CCCCC/C=C\C/C=C\C/C=C\C/C=C\CCCC(=O)N[C@H](C)CO` [METHANANDAMIDE] registered a Ki of 815 nM.
